Laboratory results taken from ChEMBL document CHEMBL4622931, “Potent dual EGFR/Her4 tyrosine kinase inhibitors containing novel (1,2-dithiolan-4-yl)acetamides” (Bioorg Med Chem Lett, 2020).
Each block holds one compound with its values, some of them ahead of it. The source made the active and inactive calls. The calls are words filed in the database; no cut-off is given here.

Columns and labels:
[1] = target: T1, Receptor tyrosine-protein kinase erbB-4 (Homo sapiens, UniProt Q15303); test: Inhibition of HER4 (unknown origin) in presence of radiolabelled gammaATP by radioisotope filter binding assay
T1 sequence (Q15303 whole entry): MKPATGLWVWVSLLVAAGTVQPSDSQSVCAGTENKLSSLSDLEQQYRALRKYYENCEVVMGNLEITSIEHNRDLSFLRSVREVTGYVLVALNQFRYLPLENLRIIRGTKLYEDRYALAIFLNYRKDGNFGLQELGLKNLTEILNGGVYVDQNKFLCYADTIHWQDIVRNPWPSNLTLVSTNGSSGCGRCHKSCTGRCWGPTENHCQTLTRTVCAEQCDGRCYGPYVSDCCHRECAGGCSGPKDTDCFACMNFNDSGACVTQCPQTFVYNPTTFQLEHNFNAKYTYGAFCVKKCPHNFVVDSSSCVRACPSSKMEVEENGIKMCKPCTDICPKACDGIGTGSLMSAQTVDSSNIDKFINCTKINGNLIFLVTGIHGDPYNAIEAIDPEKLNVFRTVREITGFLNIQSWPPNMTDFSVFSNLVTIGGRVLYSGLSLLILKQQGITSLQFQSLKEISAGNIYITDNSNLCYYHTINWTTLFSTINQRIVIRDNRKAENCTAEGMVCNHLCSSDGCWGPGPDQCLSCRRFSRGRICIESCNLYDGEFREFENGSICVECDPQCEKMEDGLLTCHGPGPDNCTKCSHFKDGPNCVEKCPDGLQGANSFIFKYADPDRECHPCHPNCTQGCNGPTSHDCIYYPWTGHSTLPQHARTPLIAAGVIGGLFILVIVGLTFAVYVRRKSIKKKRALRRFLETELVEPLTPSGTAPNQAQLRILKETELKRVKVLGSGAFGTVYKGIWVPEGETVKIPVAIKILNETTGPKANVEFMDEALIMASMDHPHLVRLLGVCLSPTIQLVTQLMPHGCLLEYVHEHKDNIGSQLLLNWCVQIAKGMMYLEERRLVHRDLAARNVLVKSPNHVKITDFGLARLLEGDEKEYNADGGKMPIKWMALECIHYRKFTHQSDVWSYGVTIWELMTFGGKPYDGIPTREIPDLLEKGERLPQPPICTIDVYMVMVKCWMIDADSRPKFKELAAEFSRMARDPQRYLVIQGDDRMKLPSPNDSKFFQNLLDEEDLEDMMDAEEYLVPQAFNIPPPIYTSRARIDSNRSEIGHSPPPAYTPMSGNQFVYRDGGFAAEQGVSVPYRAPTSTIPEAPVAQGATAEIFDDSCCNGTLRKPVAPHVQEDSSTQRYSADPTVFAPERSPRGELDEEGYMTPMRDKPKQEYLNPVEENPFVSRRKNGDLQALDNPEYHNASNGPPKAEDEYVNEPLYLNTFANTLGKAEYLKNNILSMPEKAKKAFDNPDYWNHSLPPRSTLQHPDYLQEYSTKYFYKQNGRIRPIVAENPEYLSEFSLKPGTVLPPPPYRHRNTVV

[2] = Toxicity in NMRI mouse xenografted with human MOLT4 cells assessed as toxic signs at 10 mg/kg, ip administered for 14 days and observed on day 14; format: organism-based, MOLT-4; settings: in vivo, 336 h
[3] = system: MOLT-4; test: Antitumor activity against human MOLT4 cells loaded in hollow fibers implanted intraperitoneally in NMRI mouse assessed as reduction in cell viability at 10 mg/kg, ip administered for 14 days by celltiter glo assay; format: functional, organism-based
[4] = system: NCI-H226; test: Cytotoxicity against human NCI-H226 cells assessed as growth inhibition incubated for 48 hrs by SRB assay; format: functional; settings: NCI-H226, 48 h
[5] = system: K562; test: Cytotoxicity against human K562 cells assessed as growth inhibition incubated for 48 hrs by SRB assay; format: functional; settings: K562, 48 h
[6] = Toxicity in NMRI mouse xenografted with human NCI-H460 cells assessed as toxic signs at 10 mg/kg, ip administered for 14 days and observed on day 14; format: organism-based; settings: in vivo, 336 h
[7] = target: Epidermal growth factor receptor (Homo sapiens, UniProt P00533, EX19DEL); test: Inhibition of EGFR ex19del mutant (unknown origin) in presence of radiolabelled gammaATP by radioisotope filter binding assay
Sequence of Epidermal growth factor receptor (Homo sapiens, UniProt P00533, EX19DEL) (P00533 whole entry, looked up, stated change not applied): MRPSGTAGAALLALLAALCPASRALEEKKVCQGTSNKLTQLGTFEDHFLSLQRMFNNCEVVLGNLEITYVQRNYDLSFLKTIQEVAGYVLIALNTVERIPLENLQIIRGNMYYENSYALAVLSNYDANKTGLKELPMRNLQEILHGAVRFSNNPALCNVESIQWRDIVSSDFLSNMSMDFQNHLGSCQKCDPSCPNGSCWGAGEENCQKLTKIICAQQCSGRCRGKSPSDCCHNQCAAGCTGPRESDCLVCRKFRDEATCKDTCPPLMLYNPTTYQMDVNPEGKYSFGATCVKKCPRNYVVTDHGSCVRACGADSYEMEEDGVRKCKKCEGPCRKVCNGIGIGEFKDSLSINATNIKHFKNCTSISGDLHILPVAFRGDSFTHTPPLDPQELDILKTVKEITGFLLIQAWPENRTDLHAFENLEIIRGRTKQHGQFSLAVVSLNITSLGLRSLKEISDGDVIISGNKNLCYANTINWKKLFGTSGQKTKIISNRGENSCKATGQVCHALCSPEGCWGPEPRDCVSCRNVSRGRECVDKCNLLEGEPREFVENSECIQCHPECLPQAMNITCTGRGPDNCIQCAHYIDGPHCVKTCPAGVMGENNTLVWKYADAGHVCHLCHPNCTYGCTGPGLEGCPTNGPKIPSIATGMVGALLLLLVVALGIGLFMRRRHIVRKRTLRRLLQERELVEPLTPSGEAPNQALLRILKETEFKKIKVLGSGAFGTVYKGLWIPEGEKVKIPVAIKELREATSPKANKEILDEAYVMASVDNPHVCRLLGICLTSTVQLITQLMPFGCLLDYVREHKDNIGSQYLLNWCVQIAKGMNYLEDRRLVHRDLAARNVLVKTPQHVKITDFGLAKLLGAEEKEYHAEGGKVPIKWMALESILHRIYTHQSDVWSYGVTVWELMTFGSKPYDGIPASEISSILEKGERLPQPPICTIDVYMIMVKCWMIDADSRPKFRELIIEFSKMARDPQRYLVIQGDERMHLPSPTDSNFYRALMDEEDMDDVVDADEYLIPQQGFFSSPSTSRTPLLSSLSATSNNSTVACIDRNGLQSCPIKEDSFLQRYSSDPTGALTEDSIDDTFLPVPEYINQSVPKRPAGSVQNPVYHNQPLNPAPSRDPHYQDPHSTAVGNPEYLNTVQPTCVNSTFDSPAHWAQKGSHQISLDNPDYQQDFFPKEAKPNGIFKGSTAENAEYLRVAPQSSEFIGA

[8] = Toxicity in NMRI mouse xenografted with human NCI-H460 cells assessed as weight loss at 10 mg/kg, ip administered for 14 days and observed on day 14; format: organism-based; settings: in vivo, 336 h
[9] = target: Epidermal growth factor receptor (Homo sapiens, UniProt P00533, L858R/T790M); test: Inhibition of EGFR L858R/T790M mutant (unknown origin) in presence of radiolabelled gammaATP by radioisotope filter binding assay
[10] = system: MDA-MB-231; test: Cytotoxicity against human MDA-MB-231 cells assessed as growth inhibition incubated for 48 hrs by SRB assay; format: functional; settings: MDA-MB-231, 48 h
[11] = system: SK-MEL-28; test: Cytotoxicity against human SK-MEL-28 cells assessed as growth inhibition incubated for 48 hrs by SRB assay; format: functional; settings: SK-MEL-28, 48 h
[12] = Toxicity in NMRI mouse xenografted with human HCT116 cells assessed as weight loss at 10 mg/kg, ip administered for 14 days and observed on day 14; format: organism-based, HCT-116; settings: in vivo, 336 h
[13] = target: T1, Receptor tyrosine-protein kinase erbB-4; test: Inhibition of recombinant human wild type partial length HER4 (690 to 994 residues) expressed in bacterial expression system by competitive binding assay
[14] = target: T2, Epidermal growth factor receptor (Homo sapiens, UniProt P00533, L858R); test: Inhibition of recombinant human N-terminal GST-tagged EGFR L858R mutant (669 to 1210 residues) expressed in baculovirus expression system by competitive binding assay
[15] = system: PC-3; test: Cytotoxicity against human PC3 cells assessed as growth inhibition incubated for 48 hrs by SRB assay; format: functional; settings: PC-3, 48 h
[16] = target: T3, Receptor tyrosine-protein kinase erbB-2 (Homo sapiens, UniProt P04626)
T3 sequence (P04626 whole entry): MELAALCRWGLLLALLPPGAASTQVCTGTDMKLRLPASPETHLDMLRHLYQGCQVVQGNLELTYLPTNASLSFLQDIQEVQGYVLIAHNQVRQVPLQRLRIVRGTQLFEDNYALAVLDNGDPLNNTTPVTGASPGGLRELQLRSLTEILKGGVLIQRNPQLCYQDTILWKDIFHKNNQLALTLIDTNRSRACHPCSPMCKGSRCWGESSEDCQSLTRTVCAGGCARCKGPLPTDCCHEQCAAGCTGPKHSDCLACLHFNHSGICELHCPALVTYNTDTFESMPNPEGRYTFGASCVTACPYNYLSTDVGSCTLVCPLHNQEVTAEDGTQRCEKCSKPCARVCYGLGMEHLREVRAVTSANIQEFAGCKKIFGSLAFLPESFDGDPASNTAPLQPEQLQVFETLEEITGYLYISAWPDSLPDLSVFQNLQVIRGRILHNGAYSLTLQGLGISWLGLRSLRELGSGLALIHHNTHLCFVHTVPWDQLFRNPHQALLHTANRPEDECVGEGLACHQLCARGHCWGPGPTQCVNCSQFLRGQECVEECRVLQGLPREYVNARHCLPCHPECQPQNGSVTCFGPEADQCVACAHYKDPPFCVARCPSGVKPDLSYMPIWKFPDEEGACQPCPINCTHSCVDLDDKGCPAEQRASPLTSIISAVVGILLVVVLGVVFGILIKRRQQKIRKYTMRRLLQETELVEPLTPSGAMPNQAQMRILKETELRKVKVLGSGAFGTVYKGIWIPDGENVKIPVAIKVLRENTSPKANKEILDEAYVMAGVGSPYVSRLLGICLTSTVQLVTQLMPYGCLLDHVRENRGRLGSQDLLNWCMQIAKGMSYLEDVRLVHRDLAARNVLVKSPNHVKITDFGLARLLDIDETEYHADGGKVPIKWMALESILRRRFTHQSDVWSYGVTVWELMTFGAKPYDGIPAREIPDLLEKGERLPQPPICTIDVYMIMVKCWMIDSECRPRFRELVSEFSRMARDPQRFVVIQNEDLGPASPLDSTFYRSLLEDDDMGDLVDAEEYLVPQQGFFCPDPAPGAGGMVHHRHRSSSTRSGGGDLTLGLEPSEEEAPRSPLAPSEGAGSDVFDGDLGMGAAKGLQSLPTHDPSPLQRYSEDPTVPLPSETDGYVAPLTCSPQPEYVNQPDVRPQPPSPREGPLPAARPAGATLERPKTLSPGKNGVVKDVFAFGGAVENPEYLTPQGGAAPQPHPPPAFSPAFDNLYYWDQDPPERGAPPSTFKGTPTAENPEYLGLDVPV
Description: Inhibition of recombinant human N-terminal His-tagged HER2 (676 to 1255 residues) expressed in baculovirus expression system by competitive binding assay

[17] = system: SF-268; test: Cytotoxicity against human SF268 cells assessed as growth inhibition incubated for 48 hrs by SRB assay; format: functional; settings: SF-268, 48 h
[18] = Toxicity in NMRI mouse xenografted with human MOLT4 cells assessed as weight loss at 10 mg/kg, ip administered for 14 days and observed on day 14; format: organism-based, MOLT-4; settings: in vivo, 336 h
[19] = system: NCI-H460; test: Antitumor activity against human NCI-H460 cells loaded in hollow fibers implanted intraperitoneally in NMRI mouse assessed as reduction in cell viability at 10 mg/kg, ip administered for 14 days by celltiter glo assay; format: functional, organism-based
[20] = target: Receptor tyrosine-protein kinase erbB-3 (Homo sapiens, UniProt P21860); test: Inhibition of recombinant human wild type partial length HER3 (684 to 987 residues) expressed in mammalian expression system by competitive binding assay
[21] = system: HCT-116; test: Cytotoxicity against human HCT116 cells assessed as growth inhibition incubated for 48 hrs by SRB assay; format: functional; settings: HCT-116, 48 h
[22] = system: SR; test: Cytotoxicity against human SR cells assessed as growth inhibition incubated for 48 hrs by SRB assay; format: functional
[23] = system: MDA-MB-468; test: Cytotoxicity against human MDA-MB-468 cells assessed as growth inhibition incubated for 48 hrs by SRB assay; format: functional; settings: MDA-MB-468, 48 h
[24] = system: Hs-578T; test: Cytotoxicity against human Hs578T cells assessed as growth inhibition incubated for 48 hrs by SRB assay; format: functional
[25] = target: T1, Receptor tyrosine-protein kinase erbB-4
Description: Inhibition of recombinant human N-terminal GST-tagged HER4 (676 to 1308 residues) expressed in baculovirus expression system by competitive binding assay

[26] = system: NCI-H460; test: Cytotoxicity against human NCI-H460 cells assessed as growth inhibition incubated for 48 hrs by SRB assay; format: functional; settings: NCI-H460, 48 h
[27] = target: T2, Epidermal growth factor receptor; test: Inhibition of EGFR L858R mutant (unknown origin) in presence of radiolabelled gammaATP by radioisotope filter binding assay
[28] = system: DU-145; test: Cytotoxicity against human DU145 cells assessed as growth inhibition incubated for 48 hrs by SRB assay; format: functional; settings: DU-145, 48 h
[29] = target: T3, Receptor tyrosine-protein kinase erbB-2; test: Inhibition of HER2 (unknown origin) in presence of radiolabelled gammaATP by radioisotope filter binding assay
[30] = system: M14; test: Cytotoxicity against human M14 cells assessed as growth inhibition incubated for 48 hrs by SRB assay; format: functional; settings: M14, 48 h
[31] = target: T2, Epidermal growth factor receptor; test: Inhibition of recombinant human partial length EGFR L858R mutant (669 to 1011 residues) expressed in bacterial expression system by competitive binding assay
[32] = system: CCRF-CEM; test: Cytotoxicity against human CCRF-CEM cells assessed as growth inhibition incubated for 48 hrs by SRB assay; format: functional
[33] = target: T4, Epidermal growth factor receptor (Homo sapiens, UniProt P00533); test: Inhibition of recombinant human N-terminal GST-tagged EGFR (669 to 1210 residues) expressed in baculovirus expression system by competitive binding assay
T4 sequence (P00533 whole entry, the tested form may be a part): as the sequence (P00533 whole entry, looked up, stated change not applied) above

[34] = target: T4, Epidermal growth factor receptor; test: Inhibition of wild type EGFR (unknown origin) in presence of radiolabelled gammaATP by radioisotope filter binding assay
[35] = Toxicity in NMRI mouse xenografted with human HCT116 cells assessed as toxic signs at 10 mg/kg, ip administered for 14 days and observed on day 14; format: organism-based, HCT-116; settings: in vivo, 336 h
[36] = system: MOLT-4; test: Cytotoxicity against human MOLT4 cells assessed as growth inhibition incubated for 48 hrs by SRB assay; format: functional; settings: MOLT-4, 48 h
[37] = system: MCF7; test: Cytotoxicity against human MCF7 cells assessed as growth inhibition incubated for 48 hrs by SRB assay; format: functional; settings: MCF7, 48 h

- IC50 [1]: 1.2 nM
SMILES: C=CC(=O)Nc1cc2c(Nc3ccc(F)c(Cl)c3)ccnc2cc1OCCC1CC12CCN(C)CC2 (configuration not stated)

SMILES: N#Cc1cnc2cc(OC[C@@H](O)CO)c(NC(=O)CC3CSSC3)cc2c1Nc1ccc(OCc2cccc(F)c2)c(Cl)c1
- Activity [2]: Non-Toxic
- inhibition [3]: Active
- GI50 [4]: 198 nM
- TGI [4]: 883 nM
- GI50 [5]: 94 nM
- TGI [5]: 208 nM
- Activity [6]: Non-Toxic
- IC50 [7]: 1990 nM
- Activity [8]: Non-Toxic
- IC50 [9]: > 10000 nM
- GI50 [10]: 103 nM
- TGI [10]: 237 nM
- GI50 [11]: 63 nM
- TGI [11]: 136 nM
- IC50 [1]: 0.03 nM
- Activity [12]: Non-Toxic
- Kd [13]: 6 nM
- IC50 [14]: 18.1 nM
- GI50 [15]: 89 nM
- TGI [15]: 204 nM
- IC50 [16]: 112 nM
- GI50 [17]: 83 nM
- TGI [17]: 778 nM
- Activity [18]: Non-Toxic
- inhibition [19]: Active
- Kd [20]: 380 nM
- GI50 [21]: 88 nM
- TGI [21]: 204 nM
- GI50 [22]: 66 nM
- TGI [22]: 246 nM
- GI50 [23]: 70 nM
- TGI [23]: 155 nM
- GI50 [24]: 105 nM
- TGI [24]: 282 nM
- IC50 [25]: 12.2 nM
- GI50 [26]: 103 nM
- TGI [26]: 263 nM
- IC50 [27]: 419 nM
- GI50 [28]: 134 nM
- TGI [28]: 424 nM
- IC50 [29]: 121 nM
- GI50 [30]: 83 nM
- TGI [30]: 251 nM
- Kd [31]: 9.2 nM
- GI50 [32]: 42 nM
- TGI [32]: 146 nM
- IC50 [33]: 12.3 nM
- IC50 [34]: 2.4 nM
- Activity [35]: Non-Toxic
- GI50 [36]: 74 nM
- TGI [36]: 175 nM
- GI50 [37]: 86 nM
- TGI [37]: 182 nM

SMILES: N#Cc1cnc2cc(OC[C@H](O)CO)c(NC(=O)CC3CSSC3)cc2c1Nc1ccc(OCc2cccc(F)c2)c(Cl)c1
- GI50 [4]: 690 nM
- TGI [4]: 1830 nM
- GI50 [5]: 148 nM
- TGI [5]: 454 nM
- IC50 [7]: 1280 nM
- GI50 [10]: 208 nM
- TGI [10]: 722 nM
- GI50 [11]: 129 nM
- TGI [11]: 350 nM
- IC50 [1]: 0.19 nM
- GI50 [15]: 174 nM
- TGI [15]: 455 nM
- GI50 [17]: 404 nM
- TGI [17]: 1320 nM
- GI50 [21]: 98 nM
- TGI [21]: 209 nM
- GI50 [22]: 132 nM
- TGI [22]: 608 nM
- GI50 [23]: 120 nM
- TGI [23]: 385 nM
- GI50 [24]: 512 nM
- TGI [24]: 1740 nM
- GI50 [26]: 128 nM
- TGI [26]: 312 nM
- IC50 [27]: 387 nM
- GI50 [28]: 637 nM
- TGI [28]: 1360 nM
- IC50 [29]: 104 nM
- GI50 [30]: 141 nM
- TGI [30]: 482 nM
- GI50 [32]: 112 nM
- TGI [32]: 283 nM
- IC50 [34]: 2 nM
- GI50 [36]: 93 nM
- TGI [36]: 209 nM
- GI50 [37]: 91 nM
- TGI [37]: 193 nM

- IC50 [1]: 284 nM
SMILES: N#Cc1cnc2ccc(NC(=O)C3CSSC3)cc2c1Nc1ccc(OCc2cccc(F)c2)c(Cl)c1

- IC50 [7]: 204 nM
- IC50 [9]: > 10000 nM
- IC50 [1]: 0.45 nM
- IC50 [27]: 51 nM
- IC50 [34]: 1.5 nM
SMILES: N#Cc1cnc2cc(OC[C@@H](O)CO)c(NC(=O)C3CSSC3)cc2c1Nc1ccc(OCc2cccc(F)c2)c(Cl)c1
